This is an account of results in patent US20130210042A1, “DIAGNOSTIC AND PROGNOSTIC METHOD FOR HUMAN TAUOPATHIES” (CONSIGLIO NAZIONALE DELLE RICERCHE, priority 2010, published 2013).

Read-outs that look alike come from different tables or passages of the source. Peptide text beside a SMILES is read from it. * marks the point of attachment. Cbz = O=C(OCc1ccccc1)*; CH2F = FC*

Test [1] has as its system dbAMPc/NGF-differentiated human SH-SY5Y human neuroblastoma cells. Put plainly: Generation of the 20-22 kDa NH2 tau fragment in differentiated SH-SY5Y exposed to soluble AD brain extracts (Western blot). Format: cell-based. The following applies: 12 h with 1 mg/ml AD brain extract. An excerpt:
FIG. 5. The soluble extracts from AD brain homogenates containing Aβ oligomers induce neurotoxicity and production of the NH2-derived 20-22 kDa tau fragment through the caspase-(s) activation in human differentiated SY5Y. A-B): Biochemical characterization of native Aβ oligomers enriched by crude soluble proteins extracts of AD and age-matched non-demented control brain prepared as reported by, which contained almost no Aβ monomers since the ability of these low-molecular weight species to pass readily through the 10 kDa cutoff filters under the conditions used here. Samples extracted from two different AD brain specimens were pooled and retentates—obtained by 10 kDa cutoff filters (Vivaspin 4 VSO403)—were added to the cell culture at a final concentration of 1 mg/ml. […] Unheated samples were applied on the gel in two different lanes and after transfer the membrane was cut in two equal parts and analyzed in parallel. […] Each data point is the mean±SE (bars) of five independent experiments and statistically significant differences were calculated by paired t-Student's test (*p<0.05; ***p<0.001). […] Each data point is the mean±SE (bars) of three independent experiments and statistically significant differences were calculated by paired t-Student's test (*p<0.05; **p<0.01; ***p<0.001). […]

The subject of test [2] is adenine nucleotide translocator (ANT-1). The following applies: in vitro; cited from earlier work.
Another test relates to neuronal mitochondria. The following applies: cited from earlier work; for intracellular ATP bioavailability: ATP synthesized by neuronal mitochondria.
The test system of another test is AD patients. To be noted: cited from earlier work.
In test [3] the target is T1, 20-22 kDa NH2-truncated tau fragment (human, UniProt P10636 26-547).
T1 construct: Endogenous fragment in human synaptosomes, mitochondria, CSF and STS-treated SH-SY5Y cells; Exact limits not proven; also called NH2htau; NH2 htau fragment
T1 sequence (P10636 other isoform, or with tags, fused parts or gaps limits assumed): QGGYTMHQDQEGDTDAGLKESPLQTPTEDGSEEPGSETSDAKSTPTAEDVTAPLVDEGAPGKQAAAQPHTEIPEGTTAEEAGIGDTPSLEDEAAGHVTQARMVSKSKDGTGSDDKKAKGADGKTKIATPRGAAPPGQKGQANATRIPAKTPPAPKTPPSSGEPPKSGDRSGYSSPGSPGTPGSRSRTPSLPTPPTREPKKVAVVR
Nature of the test: co-immunoprecipitation from synaptosomes with CCP-NH2 tau as bait antibody. The protocol: A): Western blotting comparing synaptosomal proteins (500 μg) from ND, AD (ND, AD) subjects immunoprecipitated (IP) and probed (WB) with CCP—NH₂ tau (NH₂ aa 26-36 of human tau) antiserum. Total proteins extracts (70 μg unbound) from STS-treated (6hSY5Y) neuronal human SY5Y and from AD synaptosomal proteins (INPUT) were also loaded for lane and included as positive internal control of electrophoretic mobility and immunoprecipitation efficiency. It is noteworthy that a NH₂-tau fragment around 20-22 kDa (arrow), but not-full-length proteins running at 55-75 kDa(arrowheads), was efficiently immunoprecipitated by CCP—NH₂ tau antiserum on synaptic-enriched fractions from AD. The asterisk indicate immunoglobulin light chains in immunoprecipitates and no significant cross-reactions with human intact tau iso forms was found in total, un-precipitated proteins. B-F): In C), Western blotting analysis comparing synaptosomal proteins (500 μg) from ND, AD (ND, AD) subjects immunoprecipitated (IP) with CCP—NH₂ tau (NH₂ aa26-36 of human tau) antiserum and probed (WB) with ANT-1 antibody (the least C-terminal 12 amino acids of human neuronal ANT-1). […]
Next the authors analyzed whether ANT-1—the neuronal-specific isoform of ANT protein—was a mitochondrial target of the NH₂htau fragment.

For the molecule `COC(=O)C[C@H](NC(=O)[C@H](C)NC(=O)[C@@H](NC(=O)OCc1ccccc1)C(C)C)C(=O)CF` [Z-VADfmk] (Cbz-Val-Ala-Asp(OMe)-CH2F), the “appearance of 20-22 kDa NH2 tau fragment after pre-incubation with protease inhibitor” value in test [1] (100 μM Z-VADfmk or 20 μM MDL28170) is recorded as “significantly reduced the appearance of 20-22 kDa NH2 tau fragment”. In addition, the “caspase-3 activation (cleaved caspase-3 Western blot)” value in test [1] (100 μM Z-VADfmk) was “blocking the caspase-3 activation”.
Regarding “NH2-26-44 peptide: synthesized NH2-26-44 tau peptide, minimal active moiety of the NH2-26-230 human tau fragment (QGGYTMHQDQEGDTDAGLK)”, in test [2], the “ANT-1-mediated ADP/ATP exchange” value is given as “specifically inhibited the ANT-1-mediated ADP/ATP exchange in a non-competitive manner”. Also, the results for the “intracellular ATP bioavailability” value in the test with neuronal mitochondria and with neuronal mitochondria (listed as NH226-44 tau) were “reduces the intracellular ATP bioavailability” and “reduced the intracellular bioavailability of ATP”, respectively. In addition, the mitochondrial oxidative phosphorylation result with neuronal mitochondria (in vitro) is listed as “impairs the mitochondrial oxidative phosphorylation”.
Take `Cc1ccc2c(c1)c1c(n2CCc2ccc(C)nc2)CCN(C)C1` [Dimebon]: the “duration of improved cognitive performance in AD patients” value with AD patients was 12-18 months.

B1: MnSOD-II (enzyme, human, UniProt P04179 25-222, looked up)
chain: KHSLPDLPYDYGALEPHINAQIMQLHHSKHHAAYVNNLNVTEEKYQEALAKGDVTAQIALQPALKFNGGGHINHSIFWTNLSPNGGGEPKGELLEAIKRDFGSFDKFKEKLTAASVGVQGSGWGWLGFNKERGHLQIAACPNQDPLQGTTGLIPLLGIDVWEHAYYLQYKNVRPDYLKAIWNVINWENVTERYMACKK
notes: also called mitochondrial superoxide dismutase
As for B1, the binding result in test [3] is reported as “no binding”.
